Molecular target: T1, MPO (Homo sapiens, UniProt P05164)
T1 construct: purchased Lee BioSolutions (Maryland Heights, MO)
T1 sequence (P05164 49-745): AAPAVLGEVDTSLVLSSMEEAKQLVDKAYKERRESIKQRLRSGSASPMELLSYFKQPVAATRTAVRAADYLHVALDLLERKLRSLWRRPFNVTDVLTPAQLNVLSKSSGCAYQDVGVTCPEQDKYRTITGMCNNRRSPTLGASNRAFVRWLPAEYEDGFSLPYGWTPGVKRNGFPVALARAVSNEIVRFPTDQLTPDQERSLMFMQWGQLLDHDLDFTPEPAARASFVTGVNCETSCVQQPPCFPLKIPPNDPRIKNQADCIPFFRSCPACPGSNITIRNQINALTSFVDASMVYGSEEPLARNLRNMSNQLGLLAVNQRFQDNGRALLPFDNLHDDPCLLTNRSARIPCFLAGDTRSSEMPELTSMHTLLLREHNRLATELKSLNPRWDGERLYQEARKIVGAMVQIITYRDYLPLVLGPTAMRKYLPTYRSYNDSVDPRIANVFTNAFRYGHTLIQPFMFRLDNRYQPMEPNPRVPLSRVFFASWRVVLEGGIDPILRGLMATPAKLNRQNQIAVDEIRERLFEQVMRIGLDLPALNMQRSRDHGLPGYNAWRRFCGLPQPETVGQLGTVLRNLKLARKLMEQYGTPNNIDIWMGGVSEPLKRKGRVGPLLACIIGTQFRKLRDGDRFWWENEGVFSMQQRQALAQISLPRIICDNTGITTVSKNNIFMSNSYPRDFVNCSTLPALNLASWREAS
Assay: MPO binding ELISA-type assay
Conditions: solid phased MPO, plate-based
Description: An Immunlon-2 HB ELISA plate was coated with 1 μg/ml C1q or MPO in bicarbonate buffer overnight at 4 °C. The plates were washed with PBST (phosphate buffered saline + 0.1% Tween) and then blocked with 1% gelatin/PBS for 2 hours at room temperature. After washing, the plates were incubated with PA or sarcosine variant peptides starting at 2.5 mg/ml and then serially diluted in 1% gelatin/PBS for 1 hour at room temperature. After washing, the plates were probed with rabbit anti-PA (developed with Cocalico Biologicals, Reamstown, PA) at 1:1000 in 1% gelatin/PBS for 1 hour, room temperature, followed by a goat anti-rabbit HRP (Sigma Aldrich, St Louis, MO) at 1:1,000 in 1% gelatin/PBS for 1 hour at room temperature with a washing step in between. Wells were developed using TMB substrate solution, stopped using 1 N H2SO4, and read at 450 nm in a plate reader.
We then tested the binding of the peptide variants to solid phased MPO in a plate-based assay. The binding curves are shown in Fig 2C with MPO binding identified for all variants except C9,10. Due to the near complete overlay of the I8 and PA curves, the PA curve is not shown in the graph. Half-maximal (Fig 2D) binding concentrations were calculated from these curves.

## CC[C@H](C)[C@H](N)C(=O)N[C@@H](C)C(=O)N[C@@H](CC(C)C)C(=O)N[C@H](C(=O)N[C@@H](CC(C)C)C(=O)N[C@@H](CCC(=O)O)C(=O)N1CCC[C@H]1C(=O)N(C)CC(=O)N[C@@H](CS)C(=O)N[C@@H](CS)C(=O)N[C@@H](CCC(N)=O)C(=O)N[C@@H](CCC(=O)O)C(=O)N[C@@H](CCCNC(=N)N)C(=O)N[C@@H](C)C(=O)N[C@@H](C)C(=O)O)[C@@H](C)CC [I8]
  binding to MPO (in words): superior binding to MPO
